18 compounds from patent US6384061B1, “Hydantoin compounds and methods related thereto” (LG Chemical Ltd., priority 2000, dated 2002) can be followed below.

pIC50: −log10 of the molar value.

In test [1] the target is T1, Geranylgeranyl transferase (Bos taurus, UniProt P29702+Q5EAD5).
T1 construct: Geranylgeranyl transferase was purified from bovine brain; from tissue; host or cells: bovine brain
Kind of test: Geranylgeranyl transferase inhibiting activity (geranylgeranyl pyrophosphate, Ras-CVIL substrate). Format: biochemical. The note with it: geranylgeranyl transferase purified from bovine brain, read-out: GGtase IC50. The procedure: To evaluate the selective enzyme inhibiting activity of the compound according to the present invention, inhibiting activity on geranylgeranyl transferase was measured. Geranylgeranyl transferase was purified from bovine brain with the method modified from Schber's method(Schber et al., J. Biol. Chem. 1990, 265, 14701). and substantially the same experiment as that of farnesyl transferase was performed using geranylgeranyl pyrophosphate and Ras-CVIL substrate protein under the similar condition to farnesyl transferase reaction.

Test [2] has as its system intracellular Ras farnesyl transferase, Rat2 cell line. Kind of test: Intracellular Ras farnesyl transferase inhibiting activity in transformed Rat2 cells (35S-methionine labelling, Y13-259 immunoprecipitation, SDS-PAGE). It counts as cell-based. Particulars: Rattus norvegicus; transformed Rat2 fibroblast cell line; concentration inhibiting 50% of farnesyl binding of Ras protein; read-out: Ftase CIC50. How it is done: In the present experiment, Rat2 cell line which expresses C-Harvey-Ras protein having transforming activity and Rat2 cell line(Korean patent application No. 97-14409) which is transformed with fused protein of H-Ras substituted with polybasic lysine domain at C-terminus of K-Ras were used. The experiment was performed by the modified Declue's method(Declue. J. E. et al., Cancer Research, 1991. 51, 712). Hereinafter, the experimental method will be described in more detail.
3×10^5 cells of transformed Rat2 fibroblast cell line were sprayed on 60 mm cell cultivation dish and cultivated for 48 hours in a cell incubator at 37° C. and after 50% or more of density was reached, it was treated with a reagent. The compound according to the present invention dissolved in dimethylsulfoxide(DMSO) was used as the reagent. 1% of dimethylsulfoxide was used in both control and experimental groups. After 4 hours from the treatment of the reagent, methionine labeled with 150 μCi of radioactive isotope, ^35S per 1 ml of medium, was added and after cultivating for 20 hours, the cells were washed with physiological saline water. The cells were lysed using 1 ml of cool cell lysis buffer solution(50 mM of Sodium Herpiss buffer solution containing 5 mmol of magnesium chloride. 1 mmol of DTT, 1% NP 40, 1 mmol of EDTA, 1 mmol of PMSF, 2 μmol of leupeptin, 2 μmol of pepstatin A and 2 μmol of antipain) and the supernatant was obtained by high-velocity centrifugation of 12,000 g×5 minutes. The amount of the labeled radioisotope of the supernatent was measured and standardized to obtain a quantitative result in immunoprecipitation reaction and then. Y13-259, monoclonal antiboby specifically binding to Ras protein(Furth, M. E. et al., J. Virol, 1982, 43, 294) was added and reacted for 15 hours at 4° C. Protein A bound to goat anti-murine Immunoglobulin antibody-agarose suspension was added to the solution and reacted for 1 hour at 4° C. and then, to remove unspecific binding product, immunoprecipitates were washed with buffer solution(50 mM Tris chloride buffer solution containing 50 mmol of sodium chloride, 0.5% of sodium dioxycolate, 0.5% of NP 40 and 0.1% of SDS). The precipitates were boiled in reagent buffer solution for electrophoresis and then, electrophoresis was performed using 13.5% of SDS polyacrylamide gel. After electrophoresis, the gel was fixed and dried. Then, the gel was exposed to X-ray film, developed and printed. From the result of the experiment, intensities of band of protein with and without farnesyl of Ras protein were measured, and the concentration of reagent inhibiting 50% of farnesyl binding was defined as CIC50, an intracellular Ras farnesyl transferase inhibiting activity.

Test [3] concerns the target T2, Ras farnesyl transferase (Homo sapiens, UniProt P49354+P49356).
T2 construct: made in house
Kind of test: Ras farnesyl transferase inhibiting activity (filter-binding, tritium-farnesylpyrophosphate, Ras-CVLS substrate). Format: biochemical. The note with it: recombinant Ras farnesyl transferase, 30 minutes at 37° C., read-out: Ftase IC50. How it is done: The enzyme reaction was performed in 50 μl of 50 mM Sodium HEPES buffer solution containing 25 mmol of potassium chloride. 25 mmol of magnesium chloride, 10 mmol of DTT and 50 μmol of zinc chloride. 1.5 μmol of Ras substrate protein, 0.15 μmol of tritium-farnesylpyrophosphate and 4.5 nmol of farnesyl transferase were used.
More specifically, in the initial step, farnesyl transferase was added to the above buffer solution, reaction was maintained for 30 minutes at 37° C. and then the reaction was stopped by adding 1 ml of ethanol solution containing 1M HCl. The formed precipitates were adsorbed to GF/B filter using Hopper harvestor(Hopper #225V) for filter-binding, washed with ethanol, and then radioactivity of the dried filter was measured using LKB β counter. Enzyme titer was measured in the unsaturated state of substrate where the concentrations of Ras substrate protein and farnesyl transferase have quantitative relationship. Enzyme inhibiting activity was measured using less than 5% of total reaction solution of the compound according to the present invention dissolved in dimethylsulfoxide(DMSO) solution as a reagent. Enzyme inhibiting activity was represented by percentage of the amount of the farnesyl incorporated with the reagent to that without the reagent.

For the compound `CC1(c2cccc3ccccc23)C(=O)N(CCCc2cnc[nH]2)C(=O)N1CC(=O)N1CCSC1` (stereo not drawn) [Compound 10, 3-[3-(3H-imidazol-4-yl)-propyl]-5-methyl-5-naphthalen-1-yl-1-(2-oxo-2-thiazolidin-3-yl-ethyl)-imidazolidin-2,4-dione], the pIC50 was less than 5.00 in test [1], greater than 4.70 in test [2] and less than 4.30 in test [3].

Consider `CC1(c2cccc3ccccc23)C(=O)N(CCCc2cnc[nH]2)C(=O)N1CC(=O)N1CCS(=O)(=O)C1` (stereo not drawn) [Compound 11], for which the pIC50 in test [1] was less than 5.00; in test [2] it was greater than 4.70; in test [3] it was less than 4.30.

On to `CSCCC1SCCN1C(=O)CN1C(=O)N(CCCc2cnc[nH]2)C(=O)C1(C)c1cccc2ccccc12` (stereo not drawn) [Compound 12, 3-[3-(3H-imidazol-4-yl)-propyl]-5-methyl-1-{2-[2-(2-methylsulfanyl-ethyl)-thiazolidin-3-yl]-2-oxo-ethyl}-5-naphthalen-1-yl-imidazolidin-2,4-dione], for which the pIC50 in test [1] is less than 5.00; in test [2], greater than 4.70; in test [3], 5.26.

Take `CC1(c2cccc3ccccc23)C(=O)N(CCCc2cnc[nH]2)C(=O)N1CC(=O)NC(CCS(C)(=O)=O)C(=O)O` (stereo not drawn) [Compound 13, 2-(2-{3-[3-(3H-imidazol-4-yl)-propyl]-5-methyl-5-naphthalen-1-yl-2,4-dioxo-imidazolidin-1-yl}-acetylamino)-4-methylsulfonyl-butyric acid]: the pIC50 in test [1] is less than 5.00; in test [2] it was greater than 4.70; in test [3], 8.82.

For the compound `CSCCC(NC(=O)CN1C(=O)N(CCCn2ccnc2)C(=O)C1(C)c1cccc2ccccc12)C(=O)O` (stereo not drawn) [Compound 14, 2-{2-[3-(3-imidazol-1-yl-propyl)-5-methyl-5-naphthalen-1-yl-2,4-dioxo-imidazolidin-1-yl]-acetylamino}-4-methylsulfanyl-butyric acid], the pIC50 in test [1] was less than 5.00; in test [2], greater than 4.70; in test [3], 9.00.

As for `CSCCC(NC(=O)CN1C(=O)N(CCn2ccnc2)C(=O)C1(C)c1cccc2ccccc12)C(=O)O` (stereo not drawn) [Compound 15, 2-{2-[3-(2-imidazol-1-yl-ethyl)-5-methyl-5-naphthalen-1-yl-2,4-dioxo-imidazolidin-1-yl]-acetylamino}-4-methylsulfanyl-butyric acid], the pIC50 was less than 5.00 in test [1], greater than 4.70 in test [2] and 8.70 in test [3].

Regarding `CC1(c2cccc3ccccc23)C(=O)N(CCCn2ccnc2)C(=O)N1Cc1ccccc1` (stereo not drawn) [Compound 16, 1-benzyl-3-(3-imidazol-1-yl-propyl)-5-methyl-5-naphthalen-1-yl-imidazolidin-2,4-dione], the pIC50 in test [1] is less than 5.00; in test [2], greater than 4.70; in test [3], 5.60.

Regarding `CC1(c2cccc3ccccc23)C(=O)N(CCCn2ccnc2)C(=O)N1Cc1c(F)c(F)c(F)c(F)c1F` (stereo not drawn) [Compound 17, 1-(pentafluoro-benzyl)-3-(3-imidazol-1-yl-propyl)-5-methyl-5-naphthalen-1-yl-imidazolidin-2,4-dione], the results for the pIC50 in test [1], in test [2] and in test [3] were less than 5.00, greater than 4.70 and 5.82, respectively.

Take `CC1(c2cccc3ccccc23)C(=O)N(CCCn2ccnc2)C(=O)N1Cc1cccnc1` (stereo not drawn) [Compound 18, 1-(3-pyridylmethyl)-3-(3-imidazol-1-yl-propyl)-5-methyl-5-naphthalen-1-yl-imidazolidin-2,4-dione]: the pIC50 in test [1] is less than 5.00; in test [2] it was greater than 4.70; in test [3], 6.22.

Turning to `CC1(c2cccc3ccccc23)C(=O)N(CCCn2ccnc2)C(=O)N1Cc1cccc(Cl)c1` (stereo not drawn) [Compound 19, 1-(3-chloro-benzyl)-3-(3-imidazol-1-yl-propyl)-5-methyl-5-naphthalen-1-yl-imidazolidin-2,4-dione], the figures for the pIC50 in test [1], in test [2] and in test [3] were less than 5.00, greater than 4.70 and 6.62, respectively.

Turning to `CC1(c2cccc3ccccc23)C(=O)N(CCCn2ccnc2)C(=O)N1Cc1cccc(Br)c1` (stereo not drawn) [Compound 20, 1-(3-bromo-benzyl)-3-(3-imidazol-1-yl-propyl)-5-methyl-5-naphthalen-1-yl-imidazolidin-2,4-dione], the pIC50 in test [1] is less than 5.00; in test [2], greater than 4.70; in test [3], 6.52.

Turning to `CC1(c2cccc3ccccc23)C(=O)N(CCCn2ccnc2)C(=O)N1Cc1ccc(Br)cc1` (stereo not drawn) [Compound 21, 1-(4-bromo-benzyl)-3-(3-imidazol-1-yl-propyl)-5-methyl-5-naphthalen-1-yl-imidazolidin-2,4-dione], the values for the pIC50 in test [1], in test [2] and in test [3] were less than 5.00, greater than 4.70 and 6.82, respectively.

On to `CC1(c2cccc3ccccc23)C(=O)N(CCCn2ccnc2)C(=O)N1Cc1cccc(C(F)(F)F)c1` (stereo not drawn) [Compound 22, 1-(3-trifluoromethyl-benzyl)-3-(3-imidazol-1-yl-propyl)-5-methyl-5-naphthalen-1-yl-imidazolidin-2,4-dione], for which the pIC50 in test [1] was less than 5.00; in test [2], greater than 4.70; in test [3], 5.77.

`CC1(c2cccc3ccccc23)C(=O)N(CCCn2ccnc2)C(=O)N1Cc1cccc(OC(F)(F)F)c1` (stereo not drawn) [Compound 23, 1-(3-trifluoromethoxy-benzyl)-3-(3-imidazol-1-yl-propyl)-5-methyl-5-naphthalen-1-yl-imidazolidin-2,4-dione]: the pIC50 in test [1] was less than 5.00; in test [2], greater than 4.70; in test [3], 5.52.

For `CC1(c2cccc3ccccc23)C(=O)N(CCCn2ccnc2)C(=O)N1Cc1ccc(Oc2ccccc2)cc1` (stereo not drawn) [Compound 24, 3-(3-imidazol-1-yl-propyl)-5-methyl-5-naphthalen-1-yl-1-(4-phenoxy-benzyl)-imidazolidin-2,4-dione], the pIC50 in test [1] was less than 5.00; in test [2] it was greater than 4.70; in test [3], 6.12.

With `CC1(c2cccc3ccccc23)C(=O)N(CCCn2ccnc2)C(=O)N1Cc1cccc(Oc2ccccc2)c1` (stereo not drawn) [Compound 25, 3-(3-imidazol-1-yl-propyl)-5-methyl-5-naphthalen-1-yl-1-(3-phenoxy-benzyl)-imidazolidin-2,4-dione], the pIC50 is less than 5.00 in test [1], greater than 4.70 in test [2] and 6.14 in test [3].

In the case of `CSc1ccc(CN2C(=O)N(CCCn3ccnc3)C(=O)C2(C)c2cccc3ccccc23)cc1` (stereo not drawn) [Compound 26, 3-(3-imidazol-1-yl-propyl)-1-(4-methylsulfanyl-benzyl)-5-methyl-5-naphthalen-1-yl-imidazolidin-2,4-dione], the pIC50 is less than 5.00 in test [1], greater than 4.70 in test [2] and 6.15 in test [3].

`CSCc1ccc(CN2C(=O)N(CCCn3ccnc3)C(=O)C2(C)c2cccc3ccccc23)cc1` (stereo not drawn) [Compound 27, 3-(3-imidazol-1-yl-propyl)-1-(4-methylsulfanylmethyl-benzyl)-5-methyl-5-naphthalen-1-yl-imidazolidin-2,4-dione]: the pIC50 is less than 5.00 in test [1], greater than 4.70 in test [2] and 6.68 in test [3].
